Data on 4 compounds can be found in patent publication US20220372013A2, “PIPERIDINE-2,6-DIONE DERIVATIVES AND CROHN'S DISEASE TREATING” (Tianjin Hemay Pharmaceutical Sci-Tech Co., Ltd, priority 2016, published 2022).

Data set [1] concerns DNBS-Induced Inflammatory Bowel Disease Models in Rats. As to the kind of experiment: Biological Example 2: DNBS-induced inflammatory bowel disease models in rats. The class given is in vivo, Wistar rats. The conditions noted are these: for Adhesion Degree / Colon Length / Colon Weight / Ulcer Area: sixth day, Mean ± SD; for growth rate of the body weight (in words): fourth day of the experiment, compared with model control group, doses as in Table 7. On the procedure: 110 male Wistar rats were fasted for 40 hours. A 5% glucose injection (10 mL/Kg) was administered subcutaneously during fasting. 48 rats with normal conditions and moderate body weight were selected from the fasting rats. The animals were randomly divided into […] according to the body weight: normal control group, model control group, sulfasalazine group (300 mg/Kg), dexamethasone group (0.1 mg/Kg), the compound in Example 26 group (30 mg/kg) and the compound in Example 27 group (30 mg/kg), with 8 rats in each group. The animals were anesthetized with isoflurane. A specially made gavage device (made by a rat gavage device having the diameter of 2 mm, which was nested on a mouse gavage device having the diameter of 1 mm) was slowly inserted into the enteric cavity at 8 cm from the anus. The model control group, the compound in Example 26 group and the compound in Example 27 group were administered with 0.5 mL of 50 mg/mL DNBS in 30% ethanol solution. The normal control group was administered with 0.5 mL of 30% ethanol solution. The animals were inverted in anesthesia for 15 minutes after the gavage device was removed. The day when the model was prepared was the first day of the experiment. After 4 hours of DNBS induction, the corresponding drug or the corresponding volume of 1% CMC-Na was administered once per day. On the sixth day of the experiment, the animals were euthanized to observe the results of each index so as to score the colon adhesion degree, measure the length of colon and ulcer area, weigh colon and calculate the colon weight to length ratio.
The compound in Example 26 and Example 27, sulfasalazine and dexamethasone: Preparation Method: Suspended with 1% CMC-Na, and prepared when it was needed.
Levene's Test for homogeneity of data was performed with Spss. Where the data were homogeneous (P>0.05), one-way ANOVA LSD test was performed. Where the analysis of variance was significant (P≤0.05), Dunnett's multiple comparison (parameter method) was performed. Where the results of Levene's Test were significant (P≤0.05), Kruskal-Wallis nonparametric test was performed. Where the results of Kruskal-Wallis nonparametric test were significant (P≤0.05), Mann-Whitney U test was performed for pairwise comparison.

A further data set has as its system mice. In words: Biological Example 5: acute toxicity experiment of single oral administration in mice. The class given is in vivo. The conditions noted are these: single oral 1000 mg/Kg, Mean ± SD. In short, it runs like this: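 Fasted ICR mice (19-21 g, three females and three males per group) received a single oral dose of 1000 mg/Kg, given first to one mouse of each sex and then to the remaining four. Behaviour, nervous and autonomic signs, and deaths were recorded over 0-15 min. Animals were then observed for 7 days with daily body weight.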

Data set [2] concerns DNBS-Induced Inflammatory Bowel Disease Models in Rats. In words: Biological Example 1: DNBS-induced inflammatory bowel disease models in rats. It is filed as in vivo, Wistar rats. On the procedure: Wistar rats, male, body weight of 100-120 g.
90 male Wistar rats were fasted for 40 hours. A 5% glucose injection was administered subcutaneously during fasting. 60 rats with normal conditions and moderate body weight were selected from the fasting rats. The animals were randomly divided into 6 groups according to the body weight: normal control group, model control group, sulfasalazine group (300 mg/Kg), and the compound in Example 27 groups consisting of 5, 15 and 30 mg/Kg dose groups. There were 10 rats in each group. The animals were anesthetized with ether. A specially made gavage device (made by a rat gavage device having the diameter of 2 mm, which was nested on a mouse gavage device having the diameter of 1 mm) was slowly inserted into the enteric cavity at 8 cm from the anus. The model control group, the sulfasalazine group and the compound in Example 27 groups were administered with 0.5 mL of 50 mg/mL DNBS in 30% ethanol solution. The normal control group was administered with 0.5 mL of 30% ethanol solution. The animals were inverted in anesthesia for 15 minutes after the gavage device was removed. The day when the model was prepared was the first day of the experiment. After 4 hours of DNBS induction, the corresponding drug or the corresponding volume of 1% CMC-Na was administered once per day. The body weights were recorded and the stool characteristics were scored. On the sixth day of the experiment colon tissues were taken from the animals to observe the results of each index.
The compound in Example 27 and sulfasalazine: Preparation Method: Suspended with 1% CMC-Na, and prepared when it was needed.
Animals were euthanized on the sixth day of the experiment to observe the results of each index. After the animals were sacrificed, colons were obtained. The adhesion degree of colon was observed and the length of the colon was measured. The ulcer area was calculated after removing the contents in the colon and the weight of the colon tissue was weighed. The colon tissue was longitudinally divided into two parts. One part of the colon tissue was fixed in 10% formalin solution for later use. The other part of the colon tissue was put into the liquid nitrogen to quickly frozen, and then was reserved at −80° C. for the detection of MPO.
Calculation method for ulcer area: length of ulcer point (cm)×width of ulcer point (cm).
The frozen tissue was ground into powder in liquid nitrogen. An appropriate amount of the powder was weighed and was added into 50 mM potassium phosphate solution (containing 0.5% cetyltrimethylammonium bromide) to give a 25 mg/mL solution. The resultant solution was homogenized by an electric homogenizer. 1 mL of suspension was centrifuged to give a supernatant. 7 μL of the supernatant was added into a 96-well plate and 200 μL of o-dianisidine mixture (containing 0.167 mg/mL o-dianisidine and 0.0006% H2O2 potassium phosphate buffer). OD values of the resultant solution at 0, 30, 60, and 90 s were detected at 450 nm of the microplate reader.
Test for homogeneity of variance was performed with Spss13.0. Where variance of data was homogeneous (P>0.05), one-way ANOVA LSD test was performed. Where the analysis of variance was significant (P<0.05), then Dunnett's multiple comparison (parameter method) or Kruskal-Wallis non-parametric test was performed. Where the results of Kruskal-Wallis non-parametric test were significant (P<0.05), the Mann-Whitney U test was performed for pairwise comparison.

The next data set has as its system Crohn's disease. The settings on record: C. Yang et, Aliment Pharmacol Ther 2015; cited from earlier work.
Setting [3] is: 300 mg/Kg i.g. qd × 6, sixth day, Mean ± SD.

Marks after values point to notes of the source that are not given here.

Regarding `COCCCN1C(=O)CCC(N2C(=O)c3cccc(N)c3C2=O)C1=O` (stereo not drawn) [Example 26, 4-amino-2-(1-(3-methoxypropyl)-2,6-dioxopiperidin-3-yl)isoindolin-1,3-dione], the “Adhesion Degree” value in data set [1] (30 mg/Kg i.g. qd × 6) amounted to 0.3 ± 0.5 Points. In data set [1] (30 mg/Kg i.g. qd × 6), the “Colon Length” value was 13.7 ± 1.4 cm. The “Colon Weight” value in data set [1] (30 mg/Kg i.g. qd × 6) was 1628.3 ± 185.5 mg. For the same compound, the “Ulcer Area” value in data set [1] (30 mg/Kg i.g. qd × 6) was 1.1 ± 0.9## cm^2. Besides, the “therapeutic effects on the model (in words)” value in data set [1] (30 mg/kg i.g. qd × 6) is “good therapeutic effects”. Further, the “growth rate of the body weight (in words)” value in data set [1] is recorded as “higher than that in the model control group”. For the same compound, the “Daily Body Weight” value in the data set on mice (Female mice, Day 1) was 18.0 ± 0.7 g; with mice (Female mice, Day 2), 21.9 ± 0.3 g; with mice (Female mice, Day 3) it was 22.1 ± 0.5 g; in the data set on mice (Female mice, Day 4), 22.4 ± 0.2 g; with mice (Female mice, Day 5) it was 22.7 ± 0.3 g; in the data set on mice (Female mice, Day 6), 22.6 ± 0.3 g. Besides, the “Daily Body Weight” value in the data set on mice (Female mice, Day 7) is 22.4 ± 0.2 g; in the data set on mice (Male mice, Day 1), 18.7 ± 0.8 g; in the data set on mice (Male mice, Day 2) it was 23.4 ± 0.5 g; in the data set with mice (Male mice, Day 3), 25.0 ± 0.6 g; in the data set with mice (Male mice, Day 4), 26.6 ± 1.4 g; with mice (Male mice, Day 5) it was 27.3 ± 1.3 g. Further, the “Daily Body Weight” value was 28.3 ± 1.3 g in the data set with mice (Male mice, Day 6) and 28.8 ± 1.4 g with mice (Male mice, Day 7).

`O=C(O)c1cc(/N=N/c2ccc(S(=O)(=O)Nc3ccccn3)cc2)ccc1O` [Sulfasalazine, sulfasalazine, reference compound]: in data set [2] (setting [3]), the “Adhesion Degree” value is reported as 0.2 ± 0.4 Point, the “Colon MPO Activity” value came out at 26.0 ± 14.8 U/mg, the “Colon Weight” value came out at 1794.9 ± 242.3 mg and the “Colon weight to length ratio” value stood at 140.6 ± 27.9 mg/cm. For the same compound, the “Ulcer Area” value in data set [2] (setting [3]) turned out to be 0.7 ± 0.6 cm^2. The “reduction of the ulcer area” value in data set [2] (300 mg/Kg, vs model control group) was found to be 60%. For the same compound, in data set [1] (300 mg/Kg i.g. qd × 6), the “Adhesion Degree” value came out at 0.8 ± 0.7 Points, the “Colon Length” value is 13.2 ± 2.5 cm, the “Colon Weight” value was found to be 1776.1 ± 280.7 mg and the “Ulcer Area” value is given as 1.6 ± 1.2# cm^2. In addition, in data set [1], the “growth rate of the body weight (in words)” value is recorded as “higher than that in the model control group”.

As for `Nc1cccc2c1CN(C1CCC(=O)NC1=O)C2=O` (stereo not drawn) [lenalidomide], the “effectiveness in the treatment of Crohn's disease (in words)” value in the data set with Crohn's disease is “not effective”.

`O=C1CCC(N2C(=O)c3ccccc3C2=O)C(=O)N1` (stereo not drawn) [thalidomide]: the “effectiveness in the treatment of Crohn's disease (in words)” value in the data set on Crohn's disease was “not effective”.
